Reference: patent US10071966B2, “Drug for inhibiting aggregation of proteins involved in diseases linked to protein aggregation and/or neurodegenerative diseases” (Ludwig-Maximilians-Universität München, priority 2008, dated 2018)
Entries after “also recorded” stand apart in the source; their conditions may differ. Like-named read-outs stand apart in the source and are kept apart here.

How the values were obtained:
[1] = test system: PrP^Sc accumulation in brain (RML scrapie); format: in vivo, C57BL/6 mice; details: brain at 120 dpi
[2] = molecular target: α-synuclein (Homo sapiens, UniProt P37840); test: Inhibition of the formation of α-synuclein aggregates (intermediate II oligomers), confocal single molecule spectroscopy (Example 16); format: biochemical
[3] = test system: RML scrapie; format: in vivo, C57BL/6 mice; details: different times and schedules of treatment; p<0.01
[4] = Pharmacokinetic analysis of anle138b, compound in brain and serum by LC-MS (Example 15); details: single dose, non-infected mice
[5] = test system: PrPSc in spleen (RML scrapie); format: in vivo, C57Bl6 mice; details: i.p. RML scrapie; 25 μL 100 mM i.p. 14 days then 50 mg/kg oral; day 35 post infection
[6] = test system: RML scrapie; format: in vivo, C57Bl6 mice; details: i.c. RML scrapie
[7] = test system: PrPSc in brain (RML scrapie)
[8] = test system: RML scrapie; format: in vivo, C57BL/6 mice
[9] = test system: PrP^Sc accumulation in spleen (RML scrapie); format: in vivo, C57BL/6 mice; details: i.p. infection; 34 days of 1 mg compound per day in DMSO+peanut butter; spleen at 35 dpi
[10] = i.c. RML scrapie, treatment from day 80
[11] = 5 mg per day orally in DMSO+peanut butter from 80 or 120 dpi

SMILES: FCCn1nc(-c2ccc3c(c2)OCO3)cc1-c1cccc(Br)c1 [sery363a]
- reduction of PrPC accumulation compared to DMSO-treated controls ([1]; 3 mg compound per day orally in DMSO+peanut butter from 80 dpi): 35%

SMILES: Nc1ccc(-c2cc(-c3cccc(Cl)c3)n[nH]2)cc1 [sery383]
- inhibition of alpha-synuclein aggregation [2]: highly active
- Intermediate II (formation of intermediate II oligomers in comparison to controls without compound) ([2]; compound 10 μM, aggregation induced by DMSO and 10 μM FeCl3): <5%
- reduction of PrPC accumulation compared to DMSO-treated controls ([1]; 1 mg compound per day orally in DMSO+peanut butter from 80 dpi): 30%

SMILES: Brc1cccc(-c2cc(-c3ccc4c(c3)OCO4)n[nH]2)c1 [anle138b, 3-(1,3-Benzodioxol-5-yl)-5-(3-bromophenyl)-1H-pyrazole]
- survival times after challenge with RML scrapie [3]: significantly prolonged the survival times
- brain penetration [4]: good brain penetration
- oral bioavailability [4]: good oral bioavailability
- PrPSc deposits in spleen tissue (immunohistology) [5]: reduced
- splenic PrPSc level (immunoblot / dot blot) compared to vehicle-treated mice [5]: strong reduction in PrPSc levels; also recorded: decreases significantly
- effect of treatment on survival time ([6]; daily i.p. for 14 days from day 80 post infection): significantly prolongs the survival times
- average survival time prolonged by, in comparison to DMSO vehicle group ([6]; i.p. 25 μL per day of 100 mM compound for 14 days from day 80 post infection): 14.9 days
- Inhibition [%] of PrPSc accumulation in brain, protocol b ([7]; 0.84 mg per day i.p. 14 days from 80 dpi then 2x5 days 1 mg by gavage, brain at 106 dpi, relative to DMSO-treated (0%) and start of treatment (100%)): 108%
- change of relative PrPSc levels in brain compared to untreated control at day 80 [7, 10]: slighty decreased
- pathological changes / apoptotic cells in cerebellar granule cell layer (H&E stained brain slices) [7, 10]: reduction of pathological changes
- survival time until terminal stage of scrapie infection ([7]; i.c. RML scrapie, treatment from day 80, two anle138b mice additionally fed compound in peanut butter day 109 to 136): longer survival times
- PrPSc accumulation in brain (stained sections, brain homogenates) [8, 11]: strongly reduced
- apoptotic cells in the cerebellum (neuronal cell death) [8, 11]: inhibition of neuronal cell death
- time for which weight loss is prevented ([8]; 5 mg per day orally, treatment from 80 dpi onwards): ~100 days
- time for which weight loss is inhibited ([8]; 5 mg per day orally, treatment from 120 dpi): ~70 days
- Inhibition [%] of PrPSc accumulation in brain, protocol a ([1]; 1 mg compound per day orally in DMSO+peanut butter from 80 dpi, relative to DMSO-treated (0%) and start of treatment (100%)): 69%
- PrPSc accumulation in brain, dose dependence ([1]; different amounts orally in DMSO+peanut butter from 80 dpi): reduced PrP^Sc accumulation in brain in a dose-dependent manner
- Inhibition [%] of PrPSc accumulation in spleen, protocol c [9]: 62%
